# Source: patent US5322848A, “N-acyl-substituted azacyclic compounds, processes for their preparation, and their use as pharmaceuticals” (Dr. Lo Zembeletti S.p.A., priority 1989, dated 1994)
# Counter-ions that a name gives are not always drawn.
# Legend:
# Assay type in all cases: in vivo, Male Charles River mice (Swiss Strain)
# [1] = test system: mice (p-phenylquinone-induced abdominal writhing); assay: P-phenylquinone-induced abdominal writhing test in mice; details: Mus musculus, sc, 20 min; subcutaneous; 20 min pretreatment; data referred to the free base; read-out: ANALGESIA MOUSE WRITHING ED50
# Procedure: A) P-phenylquinone-induced abdominal writhing rest in mice
# The methodology employed is based on that described by Sigmund et al, Proc. Soc. Exptl. Biol. 95, 729/1957, modified by Milne and Twomey, Agents and Actions, 10, 31/1980.
# Male Charles River mice (Swiss Strain), 25-36 g body weight, were used. Animals were allowed food and water ad libitum and were randomized into groups of 10 prior to experimentation. Test compounds were dissolved in either distilled water or distilled water plus 0.1 M AMS, and administered by the subcutaneous route in a final volume of 10 ml/Kg. Control animals received 10 ml/Kg of the appropriate vehicle alone. Following a pretreatment period of 20 min., mice were injected intraperitoneally with p-phenylquinone, 2 mg/Kg at 37° C. in a final volume of […]. […] During this period the number of abdominal writhing responses per animal were recorded where writhing consists of an intermittent contraction of the abdomen associated with hind leg extension.
# The degree of antinociceptive protection afforded by the test co mound was determined as the mean number of writhing responses observed in the treated group (T) expressed as a percentage of the mean number of writhing response in the control group (C) according to the following formula:
# [1-(T/C]×100%=% graded protection
# mice (tail-flick) [2] = assay: Tail-flick test in mice; details: 30 min pretreatment, data referred to the free base; for ED50: Mus musculus, sc, 0.5 h, subcutaneous, read-out: ANALGESIA MOUSE TAIL-FLICK ED50; for ANALGESIA MOUSE TAIL-FLICK, % at 10 mg: 10 mg (mg/kg sc)
# Procedure: (§1) B) Tail-flick test in mice
# (§2) The methodology employed is based on that described by D'Amour and Smith, J. Pharmacol. Exp. Ther. 72, 74/1941.
# (§3) Males Charles River mice (Swiss Strain), 22-34 g body weight were used. Animals were allowed food and water ad libitum and were randomized into groups of 10 prior to experimentation.
# Test compounds were dissolved in either distilled water or distilled water plug 0. 1M AMS and administered by the subcutaneous route in a final volume of 10 ml/Kg. Control animals received 10 ml/kg of the appropriate vehicle alone. Following a pretreatment period of 30 min., the mice were again placed under the heat source and the reaction tine re-determined.
# (§4) Percentage quantal protection was determined as the number of mice in which the reaction time was doubled compared to pretreatment values, expressed as a percentage of the total number of mice in the group.
# mice (tail-flick) [3] = assay: Duration of action, mouse tail-flick graded, % activity at MTFQ ED50; details: sc, data referred to the free base
# Procedure: as §1, §2, §3
# Test compounds were dissolved in either distilled water or distilled water plug 0. 1M AMS and administered by the subcutaneous route in a final volume of 10 ml/Kg. Control animals received 10 ml/kg of the appropriate vehicle alone. […]
# as §4
Structure (SMILES),ED50 [1] [mg/kg],ED50 (mice (tail-flick) [2]) [mg/kg],"DURATION OF ACTION M. TAIL-FLICK GRADED % ACTIVITY AT MTFQ ED50, 30' (mice (tail-flick) [3]) [%]","DURATION OF ACTION M. TAIL-FLICK GRADED % ACTIVITY AT MTFQ ED50, 90' (mice (tail-flick) [3]) [%]","ANALGESIA MOUSE TAIL-FLICK, % at 10 mg (mice (tail-flick) [2]) [%]"
"CC1(C)CCCN(C(=O)Cc2ccc(C(F)(F)F)cc2)C1CN1CCC(O)C1 (stereo not drawn) [Example 5, 1-(4-trifluoromethylphenyl)acetyl-2-(3-hydroxypyrrolidin-1-yl) methyl-3,3-dimethyl piperidine hydrochloride]",0.089,0.225,78,82,
"CC1(C)CCCN(C(=O)Cc2ccc(Cl)c(Cl)c2)C1CN1CCC(O)C1 (stereo not drawn) [Example 6, 1-(3,4-dichlorophenyl)acetyl-2-(3-hydroxypyrrolidin-1-yl)methyl-3,3-dimethyl piperidine hydrochloride]",0.081,0.233,87,100,
"CC1(C)CCN(C(=O)Cc2ccc(Cl)c(Cl)c2)C(CN2CCC(O)C2)C1 (stereo not drawn) [Example 7, 1-(3,4-dichlorophenyl)acetyl-2-(3-hydroxypyrrolidin-1-yl)methyl-4,4-dimethyl piperidine hydrochloride hemihydrate]",0.037,0.25,84,74,
"C[C@]1(O)CCN(C[C@H]2CCCCN2C(=O)Cc2ccc(Cl)c(Cl)c2)C1.Cl [Example 9, (R,S)-1-(3,4-dichlorophenyl)acetyl-2-(3-hydroxy-3-methylpyrrolidin-1-yl) methyl piperidine hydrochloride]",,,,,40
"CC1(C)CN(C(=O)Cc2ccc(Cl)c(Cl)c2)C(CN2CCC(O)C2)c2ccccc21 (stereo not drawn) [Example 14, 1-(3-hydroxypyrrolidin-1-yl)methyl-2-(3,4-dichlorophenyl)acetyl 4,4-dimethyl-1,2,3,4-tetrahydroisoquinoline hydrochloride]",0.087,0.898,93,85,
"O=C1CCCc2cc(CC(=O)N3CCCCC3CN3CCC(O)C3)ccc21 (stereo not drawn) [Example 17, 1-[1-oxo-3,4-dihydro-(2H)-napht-6-yl]acetyl-2-(3-hydroxy-pyrrolidin-1-yl)methyl piperidine]",1.78,3.24,78,80,
"O=C(Cc1ccc(Cl)c(Cl)c1)N1CCCCC1CN1CCC(F)C1 (stereo not drawn) [Example 18, 1-(3,4-dichlorophenyl)acetyl-2-(3-fluoropyrrolidin-1-yl)methyl piperidine hydrochloride]",0.002,0.021,80,34,
"COC1CCN(CC2CCCCN2C(=O)Cc2ccc(Cl)c(Cl)c2)C1 (stereo not drawn) [Example 19, 1-(3,4-dichlorophenyl)acetyl-2-(3-methoxypyrrolidin-1-yl)methyl piperidine]",,,,,80
"COC1CCN(CC2CCCCN2C(=O)Cc2ccc(C(F)(F)F)cc2)C1 (stereo not drawn) [Example 20, 1-(4-trifluoromethylphenyl)acetyl-2-(3-methoxypyrrolidin-1-yl) methyl piperidine]",,,,,80
"O=C1CCCc2cc(CC(=O)N3CCCCC3CN3CCC(F)C3)ccc21 (stereo not drawn) [Example 22, 1-[1-oxo-3,4-dihydro-(2H)-napht-6-yl]acetyl-2-(3-fluoropyrrolidin-1-yl)methyl piperidine hydrochloride]",0.005,0.065,75,40,
"CC1(C)CCCN(C(=O)Cc2ccc(C(F)(F)F)cc2)C1CN1CCC(F)C1 (stereo not drawn) [Example 23, 1-(4-trifluoromethylphenyl)acetyl-2-(3-fluoropyrrolidin-1-yl) methyl-3,3-dimethylpiperidine hydrochloride]",0.003,0.005,90,86,
"CC1(C)CCN(C(=O)Cc2ccc3c(c2)CCCC3=O)C(CN2CCC(F)C2)C1 (stereo not drawn) [Example 25, 1-[1-oxo-3,4-dihydro-(2H)-napht-6-yl]acetyl-2-(3-fluoropyrrolidin-1-yl)methyl-4,4-dimethyl piperidine hydrochloride]",0.005,0.47,74,56,
